Source: PMC4893628, “Chalcone-based Selective Inhibitors of a C4 Plant Key Enzyme as Novel Potential Herbicides” (Scientific Reports, 2016)
Where two headings read alike, the source gives them in different places.

Tests used:
[1] = tested on: Corynebacterium glutamicum ATCC13032; assay: Bacterial growth in microscale cultivation, C. glutamicum; format: cell-based; settings: for activity at 8 µM / activity at 80 µM / activity at 400 µM / activity at 160 µM: Corynebacterium glutamicum; for activity at 8 µM / activity at 80 µM / activity at 400 µM / activity at 160 µM / Lag Phase: relative to control
Description: (§1) The following bacteria were cultivated in the presence of trans-chalcone derived inhibitors: Corynebacterium glutamicum ATCC13032[43], Escherichia coli K-12 MG1655[44], Pseudomonas putida KT2440[45], and Bacillus subtilis 168[46]. The growth of these bacteria was monitored in flower-well plates shaken at 1200 rpm as backscatter at 620 nm (gain 20) using a BioLector® microscale cultivation system (m2p labs, Baesweiler, Germany). For further experimental details please refer to the Supplementary Information.
(§2) medium or the appropriate minimal medium and shaken at 140 rpm overnight. For inoculation of
(§3) the main culture, cells equivalent to an optical density at 600 nm of 0.5 (C. glutamicum, E. coli,
(§4) and P. putida) or 0.25 (B. subtilis) in 800 µL medium were washed and resuspended in fresh
(§5) media. Inhibitor substances were dissolved in DMSO and added to the media to a final
(§6) Since the least polar trans-chalcone and 2’-hydroxychalcone precipitated in the growth media at
(§7) the highest concentrations, the maximal concentration of these compounds was reduced to 400
(§8) µM and 100 µM, respectively. The final backscatter at 620 nm, the growth rate (h-1), and the
(§9) duration of the lag phase of all cultures were determined in a BioLector microscale cultivation
(§10) system in comparison to negative controls supplemented with the solvent DMSO. A longer lag

[2] = target: T1, F. trinervia PEPC (Flaveria trinervia, UniProt P30694); assay: biochemical; format: biochemical
T1 construct: the full-length ppcA gene of PEPC from F. trinervia (EMBL-Bank X61304); made in house; host or cells: Escherichia coli BL21(DE3)
T1 sequence (P30694 1-966): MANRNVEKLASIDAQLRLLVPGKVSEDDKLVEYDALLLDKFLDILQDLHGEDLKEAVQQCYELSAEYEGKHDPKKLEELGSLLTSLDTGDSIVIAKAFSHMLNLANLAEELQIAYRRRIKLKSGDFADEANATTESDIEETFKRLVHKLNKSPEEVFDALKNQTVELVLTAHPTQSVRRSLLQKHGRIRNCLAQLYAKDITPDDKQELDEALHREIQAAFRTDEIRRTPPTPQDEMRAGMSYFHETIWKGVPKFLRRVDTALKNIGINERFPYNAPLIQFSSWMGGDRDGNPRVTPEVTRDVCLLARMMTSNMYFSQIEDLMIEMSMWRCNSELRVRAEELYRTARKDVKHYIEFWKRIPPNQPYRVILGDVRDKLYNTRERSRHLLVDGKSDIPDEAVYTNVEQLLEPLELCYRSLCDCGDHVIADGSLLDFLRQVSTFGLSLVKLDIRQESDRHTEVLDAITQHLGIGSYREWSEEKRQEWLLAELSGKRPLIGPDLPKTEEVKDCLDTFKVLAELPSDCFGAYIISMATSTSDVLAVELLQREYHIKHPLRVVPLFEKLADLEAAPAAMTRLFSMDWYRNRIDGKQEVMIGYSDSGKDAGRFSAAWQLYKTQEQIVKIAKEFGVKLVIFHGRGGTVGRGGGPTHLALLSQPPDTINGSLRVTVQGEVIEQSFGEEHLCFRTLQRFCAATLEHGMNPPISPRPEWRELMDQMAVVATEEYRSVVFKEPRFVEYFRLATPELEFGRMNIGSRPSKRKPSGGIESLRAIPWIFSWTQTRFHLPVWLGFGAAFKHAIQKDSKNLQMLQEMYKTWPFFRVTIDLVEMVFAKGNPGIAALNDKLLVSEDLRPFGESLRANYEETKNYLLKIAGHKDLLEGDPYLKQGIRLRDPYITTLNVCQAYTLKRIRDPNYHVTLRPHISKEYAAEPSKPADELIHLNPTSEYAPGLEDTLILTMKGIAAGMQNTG
Description: The IC50 values of small molecule compounds on F. pringlei and F. trinervia PEPCs were determined using PEPC coupled spectrophotometric assay. The amount of NADH oxidized by NADH-malate dehydrogenase was measured by the decrease in absorbance at 340 nm in a Beckman DU-800 spectrophotometer, thus the value is in proportion to the corresponding substrate conversion of the enzyme. […] The reactions were started by adding two folds of the Km value of PEP for each enzyme. The data were analyzed using GraFit (Erithacus Software, UK).

[3] = tested on: Bacillus subtilis 168; assay: Bacterial growth in microscale cultivation, B. subtilis; format: cell-based; settings: for activity at 8 µM / activity at 80 µM / activity at 800 µM / activity at 160 µM / Lag Phase: relative to control
Description: as §1, §2, §3, §4, §5, §6, §7, §8, §9, §10

[4] = Minimal medium, highest concentration tested (10× IC50) if not stated otherwise

SMILES: O=C(/C=C/c1ccccc1)c1ccccc1 [Compound 1, trans-Chalcone]
- activity at 8 µM ([1]; ATCC13032, complex medium, 8 µM, read-out: Final Backscatter): 98.7%
- activity at 8 µM ([1]; ATCC13032, complex medium, 8 µM, read-out: Growth rate): 105%
- activity at 80 µM ([1]; ATCC13032, complex medium, 80 µM, read-out: Final Backscatter): 104%
- activity at 80 µM ([1]; ATCC13032, complex medium, 80 µM, read-out: Growth rate): 103%
- activity at 400 µM ([1]; ATCC13032, complex medium, 400 µM, read-out: Final Backscatter): 106%
- activity at 400 µM ([1]; ATCC13032, complex medium, 400 µM, read-out: Growth rate): 103%
- activity at 8 µM ([1]; ATCC13032, minimal medium, 8 µM, read-out: Final Backscatter): 99.7%
- activity at 8 µM ([1]; ATCC13032, minimal medium, 8 µM, read-out: Growth rate): 99.3%
- activity at 80 µM ([1]; ATCC13032, minimal medium, 80 µM, read-out: Final Backscatter): 97%
- activity at 80 µM ([1]; ATCC13032, minimal medium, 80 µM, read-out: Growth rate): 97.1%
- activity at 160 µM ([1]; ATCC13032, minimal medium, 160 µM, read-out: Final Backscatter): 98.3%
- activity at 160 µM ([1]; ATCC13032, minimal medium, 160 µM, read-out: Growth rate): 92.5%
- activity at 400 µM ([1]; ATCC13032, minimal medium, 400 µM, read-out: Final Backscatter): 99.5%
- activity at 400 µM ([1]; ATCC13032, minimal medium, 400 µM, read-out: Growth rate): 87.5%
- Influence on bacterial growth [1, 4]: μ↓ (5× IC50)
- Lag Phase ([1]; complex medium, 8 µM): 100,0%
- Lag Phase ([1]; complex medium, 80 µM): 99,5%
- Lag Phase ([1]; complex medium, 400 µM): 103,7%
- Lag Phase ([1]; minimal medium, 8 µM): 100,0%
- Lag Phase ([1]; minimal medium, 80 µM): 102,3%
- Lag Phase ([1]; minimal medium, 160 µM): 109,9%
- Lag Phase ([1]; minimal medium, 400 µM): 113,6%
- Selectivity C4/C3 ([2]; C4 PEPC over C3 isoform): 1.5 fold
- IC50 ([2]; IC50 F. trinervia PEPC, C4 PEPC): 77.5 ± 2.7 µM
- activity at 8 µM ([3]; Bacillus subtilis, 168, complex medium, 8 µM, read-out: Final Backscatter): 95.4%
- activity at 8 µM ([3]; Bacillus subtilis, 168, complex medium, 8 µM, read-out: Growth rate): 115%
- activity at 80 µM ([3]; Bacillus subtilis, 168, complex medium, 80 µM, read-out: Final Backscatter): 99%
- activity at 80 µM ([3]; Bacillus subtilis, 168, complex medium, 80 µM, read-out: Growth rate): 119%
- activity at 800 µM ([3]; Bacillus subtilis, 168, complex medium, 800 µM, read-out: Final Backscatter): 103%
- activity at 800 µM ([3]; Bacillus subtilis, 168, complex medium, 800 µM, read-out: Growth rate): 130%
- activity at 8 µM ([3]; Bacillus subtilis, 168, minimal medium, 8 µM, read-out: Final Backscatter): 89.6%
- activity at 8 µM ([3]; Bacillus subtilis, 168, minimal medium, 8 µM, read-out: Growth rate): 118%
- activity at 80 µM ([3]; Bacillus subtilis, 168, minimal medium, 80 µM, read-out: Final Backscatter): 88.8%
- activity at 80 µM ([3]; Bacillus subtilis, 168, minimal medium, 80 µM, read-out: Growth rate): 105%
- activity at 160 µM ([3]; Bacillus subtilis, 168, minimal medium, 160 µM, read-out: Final Backscatter): 89.5%
- activity at 160 µM ([3]; Bacillus subtilis, 168, minimal medium, 160 µM, read-out: Growth rate): 97.3%
- activity at 800 µM ([3]; Bacillus subtilis, 168, minimal medium, 800 µM, read-out: Final Backscatter): 83.6%
- activity at 800 µM ([3]; Bacillus subtilis, 168, minimal medium, 800 µM, read-out: Growth rate): 93.3%
- Influence on bacterial growth [3, 4]: lag↑ (2× IC50)
- Lag Phase ([3]; complex medium, 8 µM): 103,5%
- Lag Phase ([3]; complex medium, 80 µM): 103,5%
- Lag Phase ([3]; complex medium, 800 µM): 101,2%
- Lag Phase ([3]; minimal medium, 8 µM): 111,6%
- Lag Phase ([3]; minimal medium, 80 µM): 109,9%
- Lag Phase ([3]; minimal medium, 160 µM): 110,6%
- Lag Phase ([3]; minimal medium, 800 µM): 121,3%
